Test results taken from the NIST ThermoML archive (doi:10.1016/j.jct.2016.01.028).

Experiment: xn = mol fraction of the nth substance listed
Conditions: 102 kPa, Liquid; for speed of sound: Frequency=5 MHz, Single path-length method; for mass density: Vibrating tube method

CCCCC(=O)[O-].C[NH2+]CCO [2-hydroxy-N-methylethanaminium pentanoate] + O
Conditions	mass density, 298.15 K [kg/m3]	mass density, 303.15 K [kg/m3]	mass density, 308.15 K [kg/m3]	mass density, 313.15 K [kg/m3]	speed of sound, 298.15 K [m/s]	speed of sound, 303.15 K [m/s]	speed of sound, 308.15 K [m/s]	speed of sound, 313.15 K [m/s]
x1 = 0.0199	1013	1009.6	1006.1	1002.7	1645.3	1644.5	1643.7	1642.9
x1 = 0.05	1026	1022.7	1019.3	1015.9	1705.8	1698.6	1691.5	1684.3
x1 = 0.0988	1027.5	1024.2	1020.9	1017.7	1670.2	1659.8	1649.5	1639.1
x1 = 0.2023	1029.9	1026.8	1023.7	1020.7	1644.9	1631.5	1618.1	1604.8
x1 = 0.3	1028.5	1025.4	1022.3	1019.2	1633.5	1618.8	1604.2	1589.6
x1 = 0.4053	1025.2	1022.1	1018.9	1015.8	1609.2	1594.7	1580.2	1565.7
x1 = 0.5003	1021	1017.8	1014.6	1011.5	1583.7	1568.6	1553.5	1538.4
x1 = 0.5993	1019.1	1015.9	1012.7	1009.5	1571.3	1556.3	1541.4	1526.5
x1 = 0.8061	1013.3	1010.1	1006.9	1003.6	1541.8	1526.5	1511.2	1495.9
x1 = 1	1009.3	1006	1002.8	999.6	1516.3	1503.7	1486.5	1471
